The RepoRT retention time repository

Assay: HILIC, Waters Atlantis Premier BEH Z-HILIC, 100 × 2.1 mm, 1.7 µm, 40 °C, 0.15 mL/min, estimated dead time 1.5 min; A: water + 20 mM ammonium carbonate + 5 µM medronic acid; B: 10% water + 90% acetonitrile + 2 mM ammonium carbonate + 0.5 µM medronic acid; gradient (min/%B) 0/100 18/60 18.1/20 21.5/20 22/100 23.5/100 25.5/100
Settings: stereoisomer not certain

| LC retention time | SMILES |
| --- | --- |
| 13.6 min | Nc1ncnc2c1ncn2C1OC(COP(=O)(O)OP(=O)(O)OP(=O)(O)O)C(O)C1O (configuration not stated) [ATP] |
| 9.42 min | Nc1ncnc2c1ncn2C1OC(COP(=O)(O)O)C(O)C1O (configuration not stated) [AMP] |
| 8.86 min | O=C(O)CCC(O)C(=O)O (configuration not stated) [2-hydroxy glutaric acid] |
| 3.63 min | Nc1ncnc2c1ncn2C1OC(CO)C(O)C1O (configuration not stated) [Adenosine] |
| 9.95 min | NC(=O)c1ccc[n+](C2OC(COP(=O)(O)OP(=O)(O)OCC3OC(n4cnc5c(N)ncnc54)C(O)C3O)C(O)C2O)c1 (configuration not stated) [NAD] |
| 6.98 min | OCC1OC(O)C(O)C(O)C1O (configuration not stated) [Hexose] |
| 8.31 min | NC(=O)C1=CN(C2OC(COP(=O)(O)OP(=O)(O)OCC3OC(n4cnc5c(N)ncnc54)C(O)C3O)C(O)C2O)C=CC1 (configuration not stated) [NADH] |
| 13.4 min | NC(=O)c1ccc[n+](C2OC(COP(=O)(O)OP(=O)(O)OCC3OC(n4cnc5c(N)ncnc54)C(OP(=O)(O)O)C3O)C(O)C2O)c1 (configuration not stated) [NADP] |
| 11.6 min | Nc1ncnc2c1ncn2C1OC(COP(=O)(O)OP(=O)(O)O)C(O)C1O (configuration not stated) [ADP] |
| 9.95 min | CC(=O)NC1C(OP(=O)(O)OP(=O)(O)OCC2OC(n3ccc(=O)[nH]c3=O)C(O)C2O)OC(CO)C(O)C1O (configuration not stated) [UDP-GlcNAc] |
| 12.3 min | O=P(O)(O)OCC1OC(O)C(O)C(O)C1O (configuration not stated) [Glucose-6-phosphate] |
| 12.8 min | O=C(O)C(CO)OP(=O)(O)O (configuration not stated) [Phosphoglyceric acid A] |

Further lines, the molecule ahead of its results:

| SMILES | LC retention time |
| --- | --- |
| NC(CCC(=O)O)C(=O)O (configuration not stated) [Glutamic acid] | 9.81 min |
| O=P(O)(O)OCC(O)CO (configuration not stated) [Glycerol-3-phosphate] | 10.4 min |
| NC(=O)CCC(N)C(=O)O (configuration not stated) [Glutamine] | 9.87 min |
| O=C1CC(C(=O)O)NC(=O)N1 (configuration not stated) [dihydroorotic acid] | 4.08 min |
| CCC(C)C(N)C(=O)O (configuration not stated) [Isoleucine] | 6.4 min |
| O=C(O)CCCCC1SCC2NC(=O)NC21 (configuration not stated) [Biotin] | 4.67 min |
| C[N+](C)(C)CC(O)CC(=O)[O-] (configuration not stated) [Carnitine] | 10.1 min |
| O=C(O)CCC(=O)C(=O)O [2-Oxoglutaric acid] | 8.86 min |
| CCC(=O)OC(CC(=O)[O-])C[N+](C)(C)C (configuration not stated) [carnitine-C3] | 6.46 min |
| O=C(O)CC(O)(CC(=O)O)C(=O)O [Citric acid] | 14.3 min |
| C=C(OP(=O)(O)O)C(=O)O [PEP] | 13.1 min |
| CC(O)C(=O)O (configuration not stated) [Lactic Acid] | 3.35 min |
| CC(C)(COP(=O)(O)OP(=O)(O)OCC1OC(n2cnc3c(N)ncnc32)C(O)C1OP(=O)(O)O)C(O)C(=O)NCCC(=O)NCCS (configuration not stated) [CoenzymeA] | 11.4 min |
| CC(=O)SCCNC(=O)CCNC(=O)C(O)C(C)(C)COP(=O)(O)OP(=O)(O)OCC1OC(n2cnc3c(N)ncnc32)C(O)C1OP(=O)(O)O (configuration not stated) [Acetyl-CoA] | 9.69 min |
| Cc1cc2nc3c(=O)[nH]c(=O)nc-3n(CC(O)C(O)C(O)COP(=O)(O)OP(=O)(O)OCC3OC(n4cnc5c(N)ncnc54)C(O)C3O)c2cc1C (configuration not stated) [FAD] | 7.67 min |
| O=C(CO)C(O)C(O)C(O)COP(=O)(O)O (configuration not stated) [Fructose 6-phosphate] | 11.3 min |
| O=C(O)CC(C(=O)O)C(O)C(=O)O (configuration not stated) [Isocitric acid] | 14 min |
| CC(C)CC(N)C(=O)O (configuration not stated) [Leucine] | 6.46 min |
| O=C(CO)COP(=O)(O)O [Triose phosphate] | 10.4 min |
| O=C(O)CCC(=O)O [Succinic Acid] | 8.9 min |
